From US9562031B1, “Phenethyldihydrobenzodioxolones and methods of use” (Sequoia Sciences, Inc., priority 2015, dated 2017)

Assays:
MES-SA/Dx5 cells = assay: antiproliferation assay, MES-SA/Dx5; format: cell-based; conditions: Homo sapiens
Method: For the antiproliferation assay, NCI-H460 (large cell lung carcinoma) or M14 (amelanotic melanoma) cells were grown in RPMI-1640 with 10% FBS supplemented with L-glutamine and HEPES. Cells were seeded into 96-well plates at 5×10^2 to 5×10^4 cells/well and allowed to adhere overnight; the medium was then removed. A stock solution of test compound in DMSO was diluted in medium to generate a series of working solutions. Aliquots (100 μl) of the working solutions were then added to the appropriate test wells to expose cells to the final concentrations of compound in a total volume of 100 μl. Seven different concentrations were tested, with 2-5 wells per concentration. Camptothecin was used as a positive control; wells containing vehicle without compound were used as negative controls. Plates were kept for 72 h in a 37° C., 5% CO2 incubator. After incubation, viable cells were detected with the CELLTITER 96 AQueous Non-Radioactive Cell Proliferation Assay (Promega), and IC50 values were determined using GraphPad Prism 5 software.
Antiproliferation of several of the active compounds was tested against additional cell lines.
Compound 4 was tested for antiproliferation activity against several paclitaxel-resistant human cancer cell lines.

SK-OV-3 cells = assay: NCI-60 panel antiproliferation, SK-OV-3; format: cell-based, human; conditions: Homo sapiens, NCI 60-cell panel
Method: (§1) Bifidenone and Compound 37 were tested for antiproliferation activity against the NCI-60 panel of cancer cell lines. COMPARE analysis was then conducted to compare the activity “fingerprint” of bifidenone to those of known classes of compounds (Zhou, B.-N., Hoch, J. M., Johnson, R. K., Mattern, M. R., Eng, W.-K., Ma, J., Hecht, S. M., Newman, D. J., Kingston, D. G. I., 2000. Use of COMPARE Analysis to Discover New Natural Product Drugs: Isolation of Camptothecin and 9-Methoxycamptothecin from a New Source. Journal of Natural Products 63, 1273-1276.).

NCI-H322M cells = assay: NCI-60 panel antiproliferation, NCI-H322M; format: cell-based, human; conditions: Homo sapiens, NCI 60-cell panel
Method: as §1

NCI-H23 cells = assay: NCI-60 panel antiproliferation, NCI-H23; format: cell-based, human; conditions: Homo sapiens, NCI 60-cell panel
Method: as §1

CCRF-CEM cells = assay: NCI-60 panel antiproliferation, CCRF-CEM; format: cell-based, human; conditions: Homo sapiens, NCI 60-cell panel
Method: as §1

C=CC[C@H]1C[C@]2([C@H](C)Cc3cc(O)c(OC)cc3F)OCOC2=CC1=O (relative stereo) [Compound 4, 6-allyl-7a-(1-(2-fluoro-5-hydroxy-4-methoxyphenyl)propan-2-yl)-7,7a-dihydrobenzo[d][1,3]dioxol-5(6H)-one]
IC50 (MES-SA/Dx5 cells; MES-SA/Dx5, MES-SA/Dx5): 0.013 µM | IC50 (MES-SA/Dx5 cells; MES-SA/Dx5, paclitaxel-resistant MES-SA/Dx5): 0.014 µM

C=CC[C@H]1C[C@]2([C@@H](C)Cc3ccc(OC)c(F)c3)OCOC2=CC1=O [Compound 37, (6S,7aR)-6-allyl-7a-((S)-1-(3-fluoro-4-methoxyphenyl)propan-2-yl)-7,7a-dihydrobenzo[d][1,3]dioxol-5(6H)-one]
IC50 (SK-OV-3 cells): 0.039 µM | IC50 (NCI-H322M cells): 0.125 µM | IC50 (NCI-H23 cells): 0.123 µM | IC50 (CCRF-CEM cells): 0.06 µM
